From patent US20040029965A1, “Formulations for reducing or eliminating toxicity of enviromental hormones containing ursodeoxycholic acid” (priority 2000, published 2004)

System: C57B1/6J mice
Assay: Changes in body weight of mice after a single subcutaneous injection of TCDD
Format: in vivo
Conditions: for Weight (body weight): at sacrifice
Protocol: Male C57B1/6J mice of 5 weeks old having the average weight of 18-22 g which had been bred in CRJ (Charles River in Japan) were purchased and used in this example as experimental animals. Those mice were acclimated under the constant breeding condition, i.e. the temperature of 24±1° C., the humidity of 60±10% and the light and darkness cycle of 12 hours, for one week and thereafter, utilized in the experiment.
The Experimental animals were supplied with Purina powdered feed (purchased from Hae Eun Trade) and supplied with water ad libitum. All the animals were weighed twice a week during experimentation.
2,3,7,8-tetrachlorodibenzo-p-dioxin (TCDD) dissolved in toluene (purity of 95% or more as a result of gas chromatography analysis), manufactured by Chem. Services Inc. in USA, was volatilized with nitrogen to obtain powder. The obtained powder was dissolved in a mixed solvent containing acetone and corn oil with a volume ratio of 1:6. The resulting solution each containing 110, 27.5 and 6.9 μg/kg of TCDD was subcutaneously injected to mice at a volume of 5 ml per body weight. […] The mice were supplied with the feed from 10 days before (pre-administration) to 60 days after administration of TCDD (post-administration).
The results are expressed as Mean±Standard Deviation values. For statistical analysis of the body weight, feed and water uptake, biochemical findings, hematological findings and the weight of organ in an acute toxicity test, verification was performed by one way analysis of variance (ANOVA) in case of equal distribution. In case significance was recognized in ANOVA, the Student's t-test was performed in the levels of p<0.05 and p<0.01.

C[C@H](CCC(=O)O)[C@H]1CC[C@H]2[C@@H]3[C@@H](O)C[C@@H]4C[C@H](O)CC[C@]4(C)[C@H]3CC[C@]12C [UDCA, 3α, 7β-dihydroxy-5β-cholanoic acid]
body weight (TCDD 6.9 μg/kg + UDCA 0.125 wt %, 0 day): 19.77 ± 0.21
body weight (TCDD 6.9 μg/kg + UDCA 0.125 wt %, 12 days): 21.95 ± 0.28
body weight (TCDD 6.9 μg/kg + UDCA 0.125 wt %, 22 days): 23.16 ± 0.32
body weight (TCDD 6.9 μg/kg + UDCA 0.125 wt %, 32 days): 24.15 ± 0.38
body weight (TCDD 6.9 μg/kg + UDCA 0.125 wt %, 39 days): 25.21 ± 0.46
body weight (TCDD 6.9 μg/kg + UDCA 0.125 wt %, 50 days): 26.62 ± 0.56
body weight (TCDD 6.9 μg/kg + UDCA 0.125 wt %, 59 days): 27.06 ± 0.60
Weight (body weight) (TCDD 6.9 μg/kg + UDCA 0.125 wt %): 24.12 ± 1.83 g
body weight (TCDD 6.9 μg/kg + UDCA 0.25 wt %, 0 day): 20.13 ± 0.34
body weight (TCDD 6.9 μg/kg + UDCA 0.25 wt %, 12 days): 22.18 ± 0.38
body weight (TCDD 6.9 μg/kg + UDCA 0.25 wt %, 22 days): 23.81 ± 0.43
body weight (TCDD 6.9 μg/kg + UDCA 0.25 wt %, 32 days): 24.21 ± 0.47
body weight (TCDD 6.9 μg/kg + UDCA 0.25 wt %, 39 days): 25.69 ± 0.45
body weight (TCDD 6.9 μg/kg + UDCA 0.25 wt %, 50 days): 27.15 ± 0.46
body weight (TCDD 6.9 μg/kg + UDCA 0.25 wt %, 59 days): 27.74 ± 0.48
Weight (body weight) (TCDD 6.9 μg/kg + UDCA 0.25 wt %): 24.72 ± 1.39 g
body weight (TCDD 6.9 μg/kg + UDCA 0.5 wt %, 0 day): 19.97 ± 0.28
body weight (TCDD 6.9 μg/kg + UDCA 0.5 wt %, 12 days): 21.81 ± 0.32
body weight (TCDD 6.9 μg/kg + UDCA 0.5 wt %, 22 days): 23.26 ± 0.37
body weight (TCDD 6.9 μg/kg + UDCA 0.5 wt %, 32 days): 24.28 ± 0.50
body weight (TCDD 6.9 μg/kg + UDCA 0.5 wt %, 39 days): 25.22 ± 0.49
body weight (TCDD 6.9 μg/kg + UDCA 0.5 wt %, 50 days): 27.15 ± 0.49
body weight (TCDD 6.9 μg/kg + UDCA 0.5 wt %, 59 days): 27.06 ± 0.56
Weight (body weight) (TCDD 6.9 μg/kg + UDCA 0.5 wt %): 24.19 ± 1.38 g
body weight (TCDD 27.5 μg/kg + UDCA 0.125 wt %, 0 day): 19.80 ± 0.25
body weight (TCDD 27.5 μg/kg + UDCA 0.125 wt %, 12 days): 22.04 ± 0.26
body weight (TCDD 27.5 μg/kg + UDCA 0.125 wt %, 22 days): 23.59 ± 0.28
body weight (TCDD 27.5 μg/kg + UDCA 0.125 wt %, 32 days): 24.17 ± 0.33
body weight (TCDD 27.5 μg/kg + UDCA 0.125 wt %, 39 days): 25.48 ± 0.36
body weight (TCDD 27.5 μg/kg + UDCA 0.125 wt %, 50 days): 26.63 ± 0.28
body weight (TCDD 27.5 μg/kg + UDCA 0.125 wt %, 59 days): 26.93 ± 0.34
Weight (body weight) (TCDD 27.5 μg/kg + UDCA 0.125 wt %): 24.58 ± 1.07 g
body weight (TCDD 27.5 μg/kg + UDCA 0.25 wt %, 0 day): 19.96 ± 0.30
body weight (TCDD 27.5 μg/kg + UDCA 0.25 wt %, 12 days): 22.22 ± 0.29
body weight (TCDD 27.5 μg/kg + UDCA 0.25 wt %, 22 days): 23.56 ± 0.37
body weight (TCDD 27.5 μg/kg + UDCA 0.25 wt %, 32 days): 24.34 ± 0.38
body weight (TCDD 27.5 μg/kg + UDCA 0.25 wt %, 39 days): 25.38 ± 0.37
body weight (TCDD 27.5 μg/kg + UDCA 0.25 wt %, 50 days): 26.94 ± 0.50
body weight (TCDD 27.5 μg/kg + UDCA 0.25 wt %, 59 days): 27.27 ± 0.51
Weight (body weight) (TCDD 27.5 μg/kg + UDCA 0.25 wt %): 24.62 ± 1.44 g
body weight (TCDD 27.5 μg/kg + UDCA 0.5 wt %, 0 day): 19.08 ± 0.20
body weight (TCDD 27.5 μg/kg + UDCA 0.5 wt %, 12 days): 21.09 ± 0.32
body weight (TCDD 27.5 μg/kg + UDCA 0.5 wt %, 22 days): 22.52 ± 0.33
body weight (TCDD 27.5 μg/kg + UDCA 0.5 wt %, 32 days): 23.33 ± 0.32
body weight (TCDD 27.5 μg/kg + UDCA 0.5 wt %, 39 days): 24.07 ± 0.34
